Results as given in patent publication US11780893B2, “Kv1.3 blockers” (Zealand Pharma A/S, priority 2019, dated 2023).
Bridge positions count the residues as written; N and C are the ends. Square brackets hold non-standard residues; d marks the D form. Peptide text beside a SMILES is read from it. Nle = CCCC[C@H](N)C(=O)O

How the values were obtained:
Kv1.1 = biological target: T1, Kv1.1 (Homo sapiens, UniProt Q09470); assay: cell-based; conditions: for IC50: CHO cells, whole-cell patch clamp, read-out: Potency IC50 (nM) Kv1.1; for Selectivity Kv1.1/Kv1.3: ratio IC50[Kv1.1]/IC50[Kv1.3]
T1 construct: expressed in transfected cells; host or cells: Chinese Hamster Ovary (CHO)
T1 sequence (Q09470 whole entry): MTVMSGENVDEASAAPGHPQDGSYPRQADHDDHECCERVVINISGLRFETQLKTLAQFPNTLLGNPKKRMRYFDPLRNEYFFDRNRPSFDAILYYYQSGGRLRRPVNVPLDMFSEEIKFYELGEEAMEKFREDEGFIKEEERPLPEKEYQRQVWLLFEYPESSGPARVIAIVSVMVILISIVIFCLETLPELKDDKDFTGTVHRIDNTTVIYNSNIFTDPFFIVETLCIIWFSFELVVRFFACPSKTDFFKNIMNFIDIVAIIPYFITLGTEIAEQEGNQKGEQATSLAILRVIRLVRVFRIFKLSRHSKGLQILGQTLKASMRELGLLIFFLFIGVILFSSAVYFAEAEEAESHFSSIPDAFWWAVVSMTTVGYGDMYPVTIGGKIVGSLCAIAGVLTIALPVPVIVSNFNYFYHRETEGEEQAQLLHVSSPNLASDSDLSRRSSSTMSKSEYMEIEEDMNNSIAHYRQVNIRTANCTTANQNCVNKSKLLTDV

Kv1.2 = biological target: T2, Kv1.2 (Homo sapiens, UniProt P16389); assay: cell-based; conditions: CHO cells, whole-cell patch clamp; read-out: Potency IC50 (nM) Kv1.2
T2 construct: expressed in transfected cells; host or cells: Chinese Hamster Ovary (CHO)
T2 sequence (P16389 whole entry): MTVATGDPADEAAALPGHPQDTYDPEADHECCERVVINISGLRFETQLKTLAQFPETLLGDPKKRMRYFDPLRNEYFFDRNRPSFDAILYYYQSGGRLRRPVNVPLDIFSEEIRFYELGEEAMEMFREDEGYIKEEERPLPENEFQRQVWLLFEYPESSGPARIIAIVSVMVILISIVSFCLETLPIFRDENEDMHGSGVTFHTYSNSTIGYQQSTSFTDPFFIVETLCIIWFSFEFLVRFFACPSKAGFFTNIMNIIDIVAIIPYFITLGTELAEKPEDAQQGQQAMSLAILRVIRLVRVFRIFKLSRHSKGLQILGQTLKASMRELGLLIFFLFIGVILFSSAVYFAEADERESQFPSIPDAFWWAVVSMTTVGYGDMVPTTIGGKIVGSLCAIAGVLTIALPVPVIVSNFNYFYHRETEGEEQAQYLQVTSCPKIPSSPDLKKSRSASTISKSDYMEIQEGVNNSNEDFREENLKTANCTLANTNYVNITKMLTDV

Kv1.6 = biological target: T3, Kv1.6 (Homo sapiens, UniProt P17658); assay: cell-based; conditions: for IC50: CHO cells, whole-cell patch clamp, read-out: Potency IC50 (nM) Kv1.6
T3 construct: expressed in transfected cells; host or cells: Chinese Hamster Ovary (CHO)
T3 sequence (P17658 whole entry): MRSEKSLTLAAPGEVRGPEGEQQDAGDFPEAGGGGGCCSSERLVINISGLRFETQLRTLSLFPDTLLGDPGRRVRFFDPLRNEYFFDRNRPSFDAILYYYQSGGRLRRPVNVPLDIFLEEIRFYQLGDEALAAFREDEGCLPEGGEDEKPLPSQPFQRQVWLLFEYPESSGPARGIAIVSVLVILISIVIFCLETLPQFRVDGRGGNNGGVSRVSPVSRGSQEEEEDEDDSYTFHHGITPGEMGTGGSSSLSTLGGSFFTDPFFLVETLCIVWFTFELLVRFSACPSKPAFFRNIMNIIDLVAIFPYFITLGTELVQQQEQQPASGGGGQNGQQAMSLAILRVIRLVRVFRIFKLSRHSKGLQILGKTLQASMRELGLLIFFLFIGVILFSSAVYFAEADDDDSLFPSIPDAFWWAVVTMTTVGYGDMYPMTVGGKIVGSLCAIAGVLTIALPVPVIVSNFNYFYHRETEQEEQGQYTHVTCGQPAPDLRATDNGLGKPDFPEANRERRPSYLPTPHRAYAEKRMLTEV

in vivo = conditions: male, rat, sc, 70 nmol/kg
Kv1.3 = biological target: T4, Kv1.3 (Homo sapiens, UniProt P22001); assay: cell-based; conditions: CHO cells, whole-cell patch clamp; read-out: Potency IC50 (nM) Kv1.3
T4 construct: expressed in transfected cells; host or cells: Chinese Hamster Ovary (CHO)
T4 sequence (P22001 whole entry): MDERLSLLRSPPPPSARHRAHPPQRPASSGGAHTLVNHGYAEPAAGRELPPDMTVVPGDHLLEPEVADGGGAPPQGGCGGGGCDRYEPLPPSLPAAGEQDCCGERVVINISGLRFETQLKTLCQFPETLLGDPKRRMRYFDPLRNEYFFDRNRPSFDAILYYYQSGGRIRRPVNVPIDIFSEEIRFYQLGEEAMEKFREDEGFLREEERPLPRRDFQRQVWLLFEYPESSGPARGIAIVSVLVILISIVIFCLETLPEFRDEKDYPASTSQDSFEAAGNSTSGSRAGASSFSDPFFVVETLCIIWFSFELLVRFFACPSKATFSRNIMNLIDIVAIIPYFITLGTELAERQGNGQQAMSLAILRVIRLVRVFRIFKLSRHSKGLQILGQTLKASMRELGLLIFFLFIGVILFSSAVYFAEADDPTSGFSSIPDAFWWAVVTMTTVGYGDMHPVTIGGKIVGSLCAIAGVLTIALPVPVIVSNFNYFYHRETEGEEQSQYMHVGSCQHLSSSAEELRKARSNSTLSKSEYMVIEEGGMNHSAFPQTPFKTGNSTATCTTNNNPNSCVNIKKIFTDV

[1] = biological target: T5, human Kv1.3 voltage-gated K+ channel (Homo sapiens, UniProt P22001); assay: cell-based; conditions: inhibition of thallium flux, CHO-DUKX cells with human Kv1.3; read-out: IC50
T5 construct: host or cells: CHO-DUKX
T5 sequence (P22001 whole entry): as above

Rat whole blood = Rat whole blood (Rattus norvegicus, UniProt P15384)
Sequence of Rat whole blood (P15384 whole entry): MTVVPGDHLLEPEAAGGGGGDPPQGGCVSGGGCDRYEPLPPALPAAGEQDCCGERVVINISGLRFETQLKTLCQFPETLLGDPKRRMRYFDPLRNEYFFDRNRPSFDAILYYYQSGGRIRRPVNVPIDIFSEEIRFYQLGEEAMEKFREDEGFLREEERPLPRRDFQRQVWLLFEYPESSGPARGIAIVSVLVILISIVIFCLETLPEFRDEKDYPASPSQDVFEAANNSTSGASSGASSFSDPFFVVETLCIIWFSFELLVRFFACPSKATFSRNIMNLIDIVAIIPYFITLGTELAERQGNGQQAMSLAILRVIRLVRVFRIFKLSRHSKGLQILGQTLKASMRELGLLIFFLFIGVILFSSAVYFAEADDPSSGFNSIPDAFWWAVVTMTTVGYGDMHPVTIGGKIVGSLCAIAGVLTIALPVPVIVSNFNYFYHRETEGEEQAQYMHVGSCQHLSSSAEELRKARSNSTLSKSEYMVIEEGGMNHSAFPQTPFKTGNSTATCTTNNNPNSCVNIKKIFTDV

SMILES	IC50 (Kv1.1) [nM]	Selectivity Kv1.1/Kv1.3 (Kv1.1)	IC50 (Kv1.2) [nM]	IC50 (Kv1.6) [nM]	Selectivity Kv1.6/Kv1.3 (Kv1.6; ratio IC50[Kv1.6]/IC50[Kv1.3])	AUC(0-inf) (in vivo) [µM·h]	Cmax (in vivo) [nM]	half-life (in vivo) [min]	IC50 (Kv1.3) [nM]	IC50 [1] [nM]	IC50 (Rat whole blood) [nM]
CC[C@H](C)[C@@H]1NC(=O)[C@H](C)NC(=O)[C@H](CCCCN)NC(=O)[C@H](CC(C)C)NC(=O)[C@@H]2CSSC[C@@H](C(=O)N[C@@H](Cc3ccc(O)cc3)C(=O)N3CCC[C@H]3C(=O)N[C@@H](CCCNC(=N)N)C(=O)O)NC(=O)[C@H](CCCCN)NC(=O)[C@@H]3CSSC[C@H](NC(=O)[C@H](CCC(=O)O)NC(=O)[C@H](C(C)C)NC(=O)[C@H](CO)NC(=O)[C@H](C)NC(=O)[C@H](CO)NC(=O)[C@@H](NC(=O)[C@H](CCCNC(=N)N)NC(=O)[C@H](CCSC)NC(=O)[C@H](CC(=O)O)NC(=O)[C@@H](NC(=O)[C@@H](N)CC(N)=O)[C@@H](C)CC)CSSC[C@H](NC(=O)[C@H](CCCCN)NC(=O)CNC(=O)[C@H](Cc4ccccc4)NC(=O)[C@H]([C@@H](C)CC)NC(=O)[C@H](CO)NC(=O)CNC1=O)C(=O)N[C@@H](CCSC)C(=O)N[C@@H](CC(N)=O)C(=O)N[C@@H](CCCCN)C(=O)N[C@@H](CCCCN)C(=O)N3)C(=O)N[C@@H](CCCCN)C(=O)N[C@@H](CCC(N)=O)C(=O)N[C@@H](CCCCN)C(=O)N2 [Compound 8] (H-NIDMRCSASVECKQKCLKAIGSIFGKCMNKKCKCYPR-OH; disulfide 6-27, 12-32, 16-34)	> 3000	>6800	376	> 3000	>6800	0.0983	76.9	37.2	0.44	0.47	–
CCCC[C@@H]1NC(=O)[C@@H]2CSSC[C@H](NC(=O)[C@H](CCCNC(=N)N)NC(=O)[C@H](CCCC)NC(=O)[C@H](CC(=O)O)NC(=O)[C@H](CCCC)NC(=O)[C@@H](N)CC(N)=O)C(=O)N[C@@H](CO)C(=O)N[C@@H](C)C(=O)N[C@@H](CO)C(=O)N[C@@H](C(C)C)C(=O)N[C@@H](CCC(=O)O)C(=O)N[C@H]3CSSC[C@H](NC(=O)[C@H](CCCCN)NC(=O)[C@H](CCCCN)NC(=O)[C@H](CC(N)=O)NC1=O)C(=O)N[C@@H](CCCCN)C(=O)N[C@H](C(=O)N[C@@H](Cc1ccc(O)cc1)C(=O)N1CCC[C@H]1C(=O)N[C@@H](CCCNC(=N)N)C(N)=O)CSSC[C@H](NC(=O)[C@H](CCCCN)NC(=O)[C@H](CCC(N)=O)NC(=O)[C@H](CCCCN)NC3=O)C(=O)N[C@@H](CC(C)C)C(=O)N[C@@H](CCCCN)C(=O)N[C@@H](C)C(=O)N[C@@H]([C@@H](C)CC)C(=O)NCC(=O)N[C@@H](CO)C(=O)N1CCC[C@H]1C(=O)N[C@@H](Cc1ccccc1)C(=O)NCC(=O)N[C@@H](CCCCN)C(=O)N2 [Compound 62] (H-N[Nle]D[Nle]RCSASVECKQKCLKAIGSPFGKC[Nle]NKKCKCYPR-NH2; disulfide 6-27, 12-32, 16-34)	> 3000	>11600	449	2350	–	–	–	–	0.26	0.13	≤ 1
